Reference: ChEMBL document CHEMBL5223080, “Discovery of Pyrrole-imidazole Polyamides as PD-L1 Expression Inhibitors and Their Anticancer Activity via Immune and Nonimmune Pathways” (J Med Chem, 2021)
One block for each compound: values may come before it. Active and inactive are the calls of the source. The calls are words filed in the database; no cut-off is given here.

What was measured:
[1] = Induction of T-cell mediated cytotoxicity against human MDA-MB-231 cells co-cultured with Jurkat cells assessed as apoptotic cells at 8 uM incubated for 36 hrs by standard CCK-8 assay relative to control; format: functional
[2] = Induction of T-cell mediated cytotoxicity against human HCC827 cells co-cultured with Jurkat cells assessed as apoptotic cells at 8 uM incubated for 36 hrs by standard CCK-8 assay relative to control; format: functional
MDA-MB-231 [3] = assay: Cytotoxicity against human MDA-MB-231 cells incubated for 36 hrs by standard CCK-8 assay; format: functional, cell-based; details: for IC50: MDA-MB-231, 36 h
HCC827 [4] = assay: Cytotoxicity against human HCC827 cells incubated for 36 hrs by standard CCK-8 assay; format: functional, cell-based; details: for IC50: HCC827, 36 h
DNA [5] = assay: Binding affinity to wild type 28 nucleotide double stranded DNA (unknown origin) in PD-L1 gene promotor region at 1:1 compound to DNA ratio incubated for 24 hrs by Circular Dichroism assay; format: nucleic-acid assay
HCC827 [6] = assay: Antimigratory activity in human HCC827 cells assessed as inhibition rate at 0.5 to 1 uM measured after 48 hrs by Wound healing assay relative to control; format: functional; parameters: scale not given: the % may be the effect or the level left; details: dose 0.5-1 µM
MDA-MB-231 [7] = assay: Induction of apoptosis in human MDA-MB-231 cells co-cultured with human Jurkat T cells at 8 uM relative to control; format: functional
dsDNA [8] = assay: Binding affinity to human mutant double stranded DNA assessed as thermal stability of compound-DNA complex by measuring change in melting temperature at stoichiometry ratio 1:1 by UV melting assay; format: nucleic-acid assay
MDA-MB-231 [9] = assay: Antitumour activity against human MDA-MB-231 cells assessed as measuring interleukin-2 levels by ELISA; format: functional
dsDNA [10] = assay: Binding affinity to human mutant double stranded DNA assessed as thermal stability of compound-DNA complex by measuring melting change in temperature at stoichiometry ratio 1:4 by UV melting assay; format: nucleic-acid assay
MDA-MB-231 [11] = assay: Inhibition of PD-L1 protein expression in IFNgamma-induced human MDA-MB-231 cells measured for 36 hrs by Western blot analysis; format: functional, cell-based; details: dose 1.25-10 µM
Jurkat = assay: Cytotoxicity against human Jurkat cells at 8 uM incubated for 36 hrs by standard CCK-8 assay; format: toxicity, cell-based
[12] = Binding affinity to DNA STAT3 binding site of PD-L1 promoter region (unknown origin) assessed as disappearance of band of wild-type double stranded DNA-STAT3 protein complex at > 8 uM by competitive electrophoretic mobility shift assay
DNA [13] = assay: Binding affinity to 5'-biotin-double stranded DNA (unknown origin) assessed as interaction with DNA to achieve steady state at 20 nM; format: nucleic-acid assay
dsDNA [14] = assay: Binding affinity to human mutant double stranded DNA assessed as thermal stability of compound-DNA complex by measuring melting temperature change in at stoichiometry ratio 1:0.5 by UV melting assay; format: nucleic-acid assay
Homo sapiens = species on record: Homo sapiens; assay: Binding affinity to 5'-biotin-double stranded DNA (unknown origin) assessed as saturation of the compound-DNA complex at 350 to 500 nM by surface plasmon resonance; details: dose 350-500 nM
HCC827 [15] = assay: Antitumour activity against human HCC827 cells assessed as measuring interleukin-2 levels by ELISA; format: functional
DNA [16] = assay: Binding affinity to wild type double stranded DNA (unknown origin) at 1:1 compound to DNA ratio incubated for 24 hrs at 340 nm by Circular Dichroism assay; format: nucleic-acid assay
DNA [17] = assay: Binding affinity to wild-type double stranded DNA (unknown origin) by assessed as decrease in compound-DNA complex at >=8 uM by competitive electrophoretic mobility shift assay; format: nucleic-acid assay
MDA-MB-231 [18] = assay: Inhibition of PD-L1 mRNA expression in IFNgamma-induced human MDA-MB-231 cells measured for 36 hrs by qRT-PCR analysis; format: functional, cell-based; details: dose 1.25-10 µM
dsDNA [19] = assay: Binding affinity to human 5'-biotin-double stranded DNA assessed as dissociation rate constant by surface plasmon resonance; format: nucleic-acid assay
[20] = Induction of T-cell mediated cell killing in human MDA-MB-231 cells co-cultured with PMA-activated Jurkat T cells assessed as IL-2 production at 8 uM by ELISA relative to control; format: functional
MDA-MB-231 [21] = assay: Antimigratory activity in human MDA-MB-231 cells assessed as inhibition rate at 2 uM measured after 48 hrs by Wound healing assay relative to control; format: functional; parameters: scale not given: the % may be the effect or the level left
HCC827 [22] = assay: Inhibition of PD-L1 mRNA expression in IFNgamma-induced human HCC827 cells measured for 36 hrs by qRT-PCR analysis; format: functional, cell-based; details: dose 1.25-10 µM
dsDNA [23] = assay: Binding affinity to human 5'-biotin-double stranded DNA assessed as dissociation equilibrium constant by surface plasmon resonance; format: nucleic-acid assay
MRC5 = assay: Cytotoxicity against human MRC5 cells at 32 uM by standard CCK-8 assay; format: toxicity, cell-based; details: mrc5, 32 µM
[24] = Binding affinity to human single stranded DNA (unknown origin) by electrophoretic mobility shift assay
HCC827 [25] = assay: Inhibition of PD-L1 protein expression in IFNgamma-induced human HCC827 cells measured for 36 hrs by Western blot analysis; format: functional, cell-based; details: dose 1.25-10 µM
dsDNA [26] = assay: Binding affinity to human wild-type double stranded DNA assessed as thermal stability of compound-DNA complex by measuring change in melting temperature at stoichiometry ratio 1:4 by UV melting assay; format: nucleic-acid assay
dsDNA [27] = assay: Binding affinity to human wild-type double stranded DNA assessed as thermal stability of compound-DNA complex by measuring change in melting temperature at stoichiometry ratio 1:0.5 by UV melting assay; format: nucleic-acid assay
HCC827 [28] = assay: Antimigratory activity in human HCC827 cells assessed as inhibition rate at 2 uM measured after 48 hrs by Wound healing assay relative to control; format: functional; parameters: scale not given: the % may be the effect or the level left
MDA-MB-231 [29] = assay: Antimigratory activity in human MDA-MB-231 cells assessed as inhibition rate at 0.5 to 1 uM measured after 48 hrs by Wound healing assay relative to control; format: functional; parameters: scale not given: the % may be the effect or the level left; details: dose 0.5-1 µM
DNA [30] = assay: Binding affinity to wild type double stranded DNA (unknown origin) incubated for 24 hrs by Circular Dichroism assay; format: nucleic-acid assay
[31] = Induction of T-cell mediated cell killing in human HCC827 cells co-cultured with PMA-activated Jurkat T cells assessed as IL-2 production at 8 uM by ELISA relative to control; format: functional
dsDNA [32] = assay: Binding affinity to human 5'-biotin-double stranded DNA assessed as association rate constant by surface plasmon resonance; format: nucleic-acid assay
HCC827 [33] = assay: Induction of apoptosis in human HCC827 cells co-cultured with human Jurkat T cells at 8 uM relative to control; format: functional
dsDNA [34] = assay: Binding affinity to human wild-type double stranded DNA assessed as thermal stability of compound-DNA complex by measuring change in melting temperature at stoichiometry ratio 1:1 by UV melting assay; format: nucleic-acid assay

SMILES: COc1nc(OCc2cccc(-c3ccccc3)c2C)ccc1CNCCNC(C)=O
- Activity [1]: 87.58%
- Activity [2]: 70.87%
- IC50 (MDA-MB-231 [3]): 7.92 µM
- IC50 (HCC827 [4]): 8.41 µM

- Activity (DNA [5]): Active
- ΔTm (dsDNA [8]): 0.3 °C
- ΔTm (dsDNA [10]): 0.6 °C
- Activity [12]: Active
- Activity (DNA [13]): Active
- ΔTm (dsDNA [14]): 0.2 °C
- Activity (Homo sapiens): Active
- Activity (DNA [16]): Active
- Activity (DNA [17]): Active
- Kd (dsDNA [19]): 1.06 10^-2/s
- Kd (dsDNA [23]): 0.00828 µM
- Activity [24]: inactive
- ΔTm (dsDNA [26]): 8.6 °C
- ΔTm (dsDNA [27]): 2.7 °C
- Activity (DNA [30]): Active
- Ka (dsDNA [32]): 1.28 10^6/M/s
- ΔTm (dsDNA [34]): 8.2 °C
SMILES: CC(=O)Nc1cc(C(=O)Nc2cc(C(=O)Nc3cc(C(=O)Nc4cn(C)c(C(=O)Nc5cn(C)c(C(=O)NCCC(=O)Nc6cn(C)c(C(=O)Nc7cc(C(=O)Nc8cc(C(=O)NCCCC(=O)Nc9cc(C(=O)Nc%10cc(C(=O)Nc%11cc(C(=O)NCCC(=O)Nc%12cc(C(=O)Nc%13cc(C(=O)Nc%14cn(C)c(C(=O)Nc%15cc(C(=O)Nc%16cc(C(=O)NCCC(=O)NCCCN(C)C)n(C)c%16)n(C)c%15)n%14)n(C)c%13)n(C)c%12)n(C)c%11)n(C)c%10)n(C)c9)n(C)c8)n(C)c7)n6)n5)n4)n(C)c3)n(C)c2)n(C)c1.Cl
- Activity (HCC827 [6]): 50%
- Activity (MDA-MB-231 [7]): 27.76%
- Activity (MDA-MB-231 [9]): 48.06 pg/mL
- Activity [1]: 50.73%
- Activity [2]: 48%
- inhibition (MDA-MB-231 [11]): Dose-Dependent Effect
- Activity (Jurkat): Non-Toxic
- Activity (HCC827 [15]): 28.2 pg/mL
- inhibition (MDA-MB-231 [18]): Dose-Dependent Effect
- Activity [20]: 33%
- Activity (MDA-MB-231 [21]): >70%
- inhibition (HCC827 [22]): Dose-Dependent Effect
- IC50 (MDA-MB-231 [3]): 21.7 µM
- Activity (MDA-MB-231 [3]; dose 2-32 µM): Dose-Dependent Effect
- Activity (MRC5): Non-Toxic
- IC50 (HCC827 [4]): 23.2 µM
- Activity (HCC827 [4]; dose 2-32 µM): Dose-Dependent Effect
- inhibition (HCC827 [25]): Dose-Dependent Effect
- Activity (HCC827 [28]): >70%
- Activity (MDA-MB-231 [29]): 50%
- Activity [31]: 31.41%
- Activity (HCC827 [33]): 23.4%
